# Results from patent publication US20060079566A1, “PDK-1/Akt signaling inhibitors” (priority 2003, published 2006).
# How the values were obtained:
# [1] = system: HCT-15; test: NCI DTP screen (SRB), Colon Cancer; type: cell-based; conditions: Homo sapiens
# Experimental: After 24 h, two plates of each cell line are fixed in situ with TCA, to represent a measurement of the cell population for each cell line at the time of drug addition (Tz). Experimental drugs are solubilized in dimethyl sulfoxide at 400-fold the desired final maximum test concentration and stored frozen prior to use. […]
# Following drug addition, the plates are incubated for an additional 48 h at 37° C., 5% CO2, 95% air, and 100% relative humidity. […] Bound stain is subsequently solubilized with 10 mM trizma base, and the absorbance is read on an automated plate reader at a wavelength of 515 nm. […] Using the seven absorbance measurements [time zero, (Tz), control growth, (C), and test growth in the presence of drug at the five concentration levels (Ti)], the percentage growth is calculated at each of the drug concentrations levels. Percentage growth inhibition is calculated as: [(Ti−Tz)/(C−Tz)]×100 for concentrations for which Ti>/=Tz [(Ti−Tz)/Tz]×100 for concentrations for which Ti<Tz […]
# [2] = system: SK-MEL-2; test: NCI DTP screen (SRB), Melanoma; type: cell-based
# Experimental: (§1) Screening of compounds 70 and 71 against several cancer cell lines The human tumor cell lines of the cancer screening panel are grown in RPMI 1640 medium containing 5% fetal bovine serum and 2 mM L-glutamine. For a typical screening experiment, cells are inoculated into 96 well microtiter plates in 100 μL at plating densities ranging from 5,000 to 40,000 cells/well depending on the doubling time of individual cell lines. After cell inoculation, the microtiter plates are incubated at 37° C., 5% CO2, 95% air and 100% relative humidity for 24 h prior to addition of experimental drugs.
# (§2) After 24 h, two plates of each cell line are fixed in situ with TCA, to represent a measurement of the cell population for each cell line at the time of drug addition (Tz). Experimental drugs are solubilized in dimethyl sulfoxide at 400-fold the desired final maximum test concentration and stored frozen prior to use. At the time of drug addition, an aliquot of frozen concentrate is thawed and diluted to twice the desired final maximum test concentration with complete medium containing 50 μg/ml gentamicin. Additional four, 10-fold or ½ log serial dilutions are made to provide a total of five drug concentrations plus control. Aliquots of 100 μl of these different drug dilutions are added to the appropriate microtiter wells already containing 100 μl of medium, resulting in the required final drug concentrations.
# (§3) Following drug addition, the plates are incubated for an additional 48 h at 37° C., 5% CO2, 95% air, and 100% relative humidity. For adherent cells, the assay is terminated by the addition of cold TCA. Cells are fixed in situ by the gentle addition of 50 μl of cold 50% (w/v) TCA (final concentration, 10% TCA) and incubated for 60 minutes at 4° C. The supernatant is discarded, and the plates are washed five times with tap water and air dried. Sulforhodamine B (SRB) solution (100 μl) at 0.4% (w/v) in 1% acetic acid is added to each well, and plates are incubated for 10 minutes at room temperature. After staining, unbound dye is removed by washing five times with 1% acetic acid and the plates are air dried. Bound stain is subsequently solubilized with 10 mM trizma base, and the absorbance is read on an automated plate reader at a wavelength of 515 nm. For suspension cells, the methodology is the same except that the assay is terminated by fixing settled cells at the bottom of the wells by gently adding 50 μl of 80% TCA (final concentration, 16% TCA). Using the seven absorbance measurements [time zero, (Tz), control growth, (C), and test growth in the presence of drug at the five concentration levels (Ti)], the percentage growth is calculated at each of the drug concentrations levels. Percentage growth inhibition is calculated as: [(Ti−Tz)/(C−Tz)]×100 for concentrations for which Ti>/=Tz [(Ti−Tz)/Tz]×100 for concentrations for which Ti<Tz
# (§4) Three dose response parameters are calculated for each experimental agent. […] The drug concentration resulting in total growth inhibition (TGI) is calculated from Ti=Tz. […] Values are calculated for each of these three parameters if the level of activity is reached; however, if the effect is not reached or is exceeded, the value for that parameter is expressed as greater or less than the maximum or minimum concentration tested.
# [3] = system: SK-MEL-28; test: NCI DTP screen (SRB), Melanoma; type: cell-based; conditions: Homo sapiens
# Experimental: as §1, §2, §3, §4
# [4] = system: LOX IMVI; test: NCI DTP screen (SRB), Melanoma; type: cell-based; conditions: Homo sapiens, LOX IMVI
# Experimental: as §1, §2, §3, §4
# [5] = system: SK-MEL-5; test: NCI DTP screen (SRB), Melanoma; type: cell-based; conditions: Homo sapiens
# Experimental: as §1, §2, §3, §4
# [6] = system: M14; test: NCI DTP screen (SRB), Melanoma; type: cell-based; conditions: Homo sapiens
# Experimental: as §1, §2, §3, §4
# [7] = system: MALNE-3M; test: NCI DTP screen (SRB), Melanoma; type: cell-based
# [8] = system: PC-3 cells; test: Cell viability analysis (MTT) in PC-3 cells; type: cell-based, human; conditions: Homo sapiens; inducing apoptotic death in PC-3 cells / PC-3 cell viability; read-out: IC50 PC-3
# Experimental: Cell Culture PC-3 (p53−/−) human androgen-nonresponsive prostate cancer cells were purchased from the American […] (Manassas, Va.). Cells were cultured in RPMI 1640 medium (Gibco, Grand Island, N.Y.) supplemented with 10% fetal bovine serum (FBS; Gibco) at 37° C. in a humidified incubator containing 5% CO2.
# Cell viability analysis The effect of 4-[5-(4-methylphenyl)-3-(trifluoromethyl)-1H-pyrazol-1-yl]benzenesulfonamide and its derivatives on PC-3 cell viability was assessed by using the MTT {[3-(4,5-dimethylthiazol-2-yl)-2,5-diphenyl-2H-tetrazolium bromide]} assay in six replicates. Cells were grown in 10% FBS-supplemented RPMI 1640 medium in 96-well, flat bottomed plates for 24 h, and were exposed to various concentrations of compounds 1-36 dissolved in DMSO (final concentration ≦0.1%) in 1% serum-containing RPMI 1640 medium for different time intervals. Controls received DMSO vehicle at a concentration equal to that in drug-treated cells. The medium was removed, replaced by 200 μl of 0.5 mg/ml of MTT in 10% FBS-containing RPMI-1640 medium, and cells were incubated in the CO2 incubator at 37° C. for 2 h. Supernatants were removed from the wells, and the reduced MTT dye was solubilized in 200 μL/well DMSO. Absorbance at 570 nm was determined on a plate reader.
# [9] = system: A549/ATCC; test: NCI DTP screen (SRB), Non-Small Cell Lung Cancer; type: cell-based; conditions: Homo sapiens
# Experimental: as §1, §2, §3, §4
# [10] = system: NCI-H322M; test: NCI DTP screen (SRB), Non-Small Cell Lung Cancer; type: cell-based; conditions: NCI-H322M
# Experimental: as §1, §2, §3, §4
# [11] = system: NCI-H23; test: NCI DTP screen (SRB), Non-Small Cell Lung Cancer; type: cell-based; conditions: Homo sapiens
# Experimental: as §1, §2, §3, §4
# [12] = system: NCI-H460; test: NCI DTP screen (SRB), Non-Small Cell Lung Cancer; type: cell-based
# Experimental: as §1, §2, §3, §4
# [13] = system: HOP-62; test: NCI DTP screen (SRB), Non-Small Cell Lung Cancer; type: cell-based; conditions: Homo sapiens
# Experimental: as §1, §2, §3, §4
# [14] = system: EKVX; test: NCI DTP screen (SRB), Non-Small Cell Lung Cancer; type: cell-based; conditions: Homo sapiens
# Experimental: as §1, §2, §3, §4
# [15] = system: NCI-H226; test: NCI DTP screen (SRB), Non-Small Cell Lung Cancer; type: cell-based; conditions: Homo sapiens
# Experimental: as §1, §2, §3, §4
# [16] = MALNE-3M, Log10 Concentration −5.0
smiles,measurement,setting,value
"NCC(=O)Nc1ccc(-n2nc(C(F)(F)F)cc2-c2ccc3c(ccc4ccccc43)c2)cc1 [Compound 70, 2-Amino-N-{4-[5-(2-phenanthrenyl)-3-(trifluoromethyl)-1H-pyrazol-1-yl]-phenyl}-acetamide]",GI50,[1]; HCT-15,365 nM
same,CC50,"[1]; HCT-15, read-out: LC50",> 100000 nM
same,GI50,"[2]; Homo sapiens, SK-MEL-2",2330 nM
same,CC50,"[2]; Homo sapiens, SK-MEL-2, read-out: LC50",> 100000 nM
same,Percent Growth,"[2]; SK-MEL-2, Log10 Concentration −5.0",−67%
same,GI50,[3]; SK-MEL-28,1220 nM
same,CC50,"[3]; SK-MEL-28, read-out: LC50",5690 nM
same,GI50,[4],836 nM
same,GI50,[5],1360 nM
same,GI50,[6]; M14,2100 nM
same,CC50,"[6]; M14, read-out: LC50",> 100000 nM
same,CC50,"[7]; Homo sapiens, read-out: LC50",7730 nM
same,Mean Optical Densities,[7]; [16],0.218
same,Percent Growth,[7]; [16],−67%
same,Percent Growth,"[7]; MALNE-3M, Log10 Concentration −6.0",87%
same,IC50,[8],5000 nM
same,GI50,[9],1020 nM
same,CC50,"[10]; Homo sapiens, read-out: LC50",5400 nM
same,Mean Optical Densities,[10]; Log10 Concentration −5.0,1.100
same,Percent Growth,[10]; Log10 Concentration −8.0,60%
same,GI50,[11]; NCI-H23,1300 nM
same,CC50,"[11]; NCI-H23, read-out: LC50",6330 nM
same,GI50,"[12]; Homo sapiens, NCI-H460",421 nM
same,CC50,"[12]; Homo sapiens, NCI-H460, read-out: LC50",> 100000 nM
same,Percent Growth,"[12]; NCI-H460, Log10 Concentration −5.0",−66%
same,Mean Optical Densities,"[12]; NCI-H460, Log10 Concentration −6.0",1.830
same,GI50,[13]; HOP-62,1270 nM
same,CC50,"[13]; HOP-62, read-out: LC50",7130 nM
same,GI50,[14],1490 nM
same,GI50,[15],1200 nM
